Reference: the supplement of paper PMC10307832

How the values were obtained:
Test in all cases: relative viability (nuclei count vs DMSO), 5 days (fraction); higher = more cells survive
[1] = compound: CS(=O)(=O)c1ccc(-c2cnc(N)c(C(=O)Nc3ccccc3)n2)cc1 [VE-821] + COc1cc2c(Oc3ccc(NC(=O)C4(C(=O)Nc5ccc(F)cc5)CC4)cc3F)ccnc2cc1OCCCN1CCOCC1 [Foretinib] (partner 0.25 µM)
Summary of the method: (§1)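 For relative viability, nuclei counts in treated wells were divided by those in vehicle wells. Lung cancer cell lines had been pin-tool dosed in 1536-well plates the day after seeding and cultured for 5 days, then fixed and stained in one step (final 0.05% Triton X-100, 1% formaldehyde, 1 ug/ml Hoechst) and imaged at 4×. Doses were one drug alone or a fixed anchor-drug dose plus five library-drug doses (not always all listed) in √10 steps, and values are duplicate-plate medians.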

[2] = compound: CS(=O)(=O)c1ccc(C(=O)Nc2ccc(Cl)c(-c3ccccn3)c2)c(Cl)c1 [Vismodegib] + Nc1nc2[nH]cc(CCc3ccc(C(=O)N[C@@H](CCC(=O)O)C(=O)O)cc3)c2c(=O)[nH]1 [Pemetrexed] (partner 0.2 µM)
Summary of the method: as §1

[3] = compound: N#CC[C@H](C1CCCC1)n1cc(-c2ncnc3[nH]ccc23)cn1 [Ruxolitinib] + Cc1cc(Nc2cc(N3CCN(C)CC3)nc(Sc3ccc(NC(=O)C4CC4)cc3)n2)n[nH]1 [Tozasertib] (partner 0.1 µM)
Summary of the method: as §1

[4] = compound: N#CC[C@H](C1CCCC1)n1cc(-c2ncnc3[nH]ccc23)cn1 [Ruxolitinib] + Nc1ncn([C@H]2C[C@H](O)[C@@H](CO)O2)c(=O)n1 [Decitabine] (partner 2 µM)
Summary of the method: as §1

Cell Line: NCI-H1793
- relative viability ([1]; first compound 0.08 µM): 0.749
- relative viability ([1]; first compound 0.253 µM): 0.669
- relative viability ([1]; first compound 0.8 µM): 0.589
- relative viability ([1]; first compound 2.53 µM): 0.85
- relative viability ([1]; first compound 8 µM): 0.55
- relative viability ([2]; first compound 0.253 µM): 0.877
- relative viability ([2]; first compound 0.8 µM): 0.708
- relative viability ([2]; first compound 2.53 µM): 0.83
- relative viability ([2]; first compound 8 µM): 0.726
- relative viability ([3]; first compound 0.08 µM): 0.343
- relative viability ([3]; first compound 0.253 µM): 0.368
- relative viability ([3]; first compound 0.8 µM): 0.48
- relative viability ([3]; first compound 2.53 µM): 0.492
- relative viability ([3]; first compound 8 µM): 0.309
- relative viability ([4]; first compound 0.08 µM): 0.436
- relative viability ([4]; first compound 0.253 µM): 0.502
- relative viability ([4]; first compound 0.8 µM): 0.488
- relative viability ([4]; first compound 2.53 µM): 0.392
- relative viability ([4]; first compound 8 µM): 0.413

Cell Line: NCI-H650
- relative viability ([1]; first compound 0.08 µM): 1.04
- relative viability ([1]; first compound 0.253 µM): 1.05
- relative viability ([1]; first compound 0.8 µM): 1.08
- relative viability ([1]; first compound 2.53 µM): 1.04
- relative viability ([1]; first compound 8 µM): 1.07
- relative viability ([2]; first compound 0.08 µM): 0.896
- relative viability ([2]; first compound 0.253 µM): 0.983
- relative viability ([2]; first compound 0.8 µM): 0.898
- relative viability ([2]; first compound 2.53 µM): 0.958
- relative viability ([2]; first compound 8 µM): 1.01
- relative viability ([3]; first compound 0.253 µM): 0.834
- relative viability ([3]; first compound 0.8 µM): 0.788
- relative viability ([3]; first compound 2.53 µM): 0.554
- relative viability ([3]; first compound 8 µM): 0.603
- relative viability ([4]; first compound 0.08 µM): 0.364
- relative viability ([4]; first compound 0.253 µM): 0.38
- relative viability ([4]; first compound 0.8 µM): 0.28
- relative viability ([4]; first compound 2.53 µM): 0.342
- relative viability ([4]; first compound 8 µM): 0.332

Cell Line: NCI-H647
- relative viability ([1]; first compound 0.08 µM): 1.51
- relative viability ([1]; first compound 0.253 µM): 1.29
- relative viability ([1]; first compound 0.8 µM): 1.01
- relative viability ([1]; first compound 2.53 µM): 1.14
- relative viability ([1]; first compound 8 µM): 0.801
- relative viability ([2]; first compound 0.08 µM): 0.156
- relative viability ([2]; first compound 0.253 µM): 0.188
- relative viability ([2]; first compound 0.8 µM): 0.171
- relative viability ([2]; first compound 2.53 µM): 0.15
- relative viability ([2]; first compound 8 µM): 0.184
- relative viability ([3]; first compound 0.08 µM): 0.297
- relative viability ([3]; first compound 0.253 µM): 0.237
- relative viability ([3]; first compound 0.8 µM): 0.224
- relative viability ([3]; first compound 2.53 µM): 0.378
- relative viability ([3]; first compound 8 µM): 0.297
- relative viability ([4]; first compound 0.08 µM): 0.45
- relative viability ([4]; first compound 0.253 µM): 0.351
- relative viability ([4]; first compound 0.8 µM): 0.433
- relative viability ([4]; first compound 2.53 µM): 0.28
- relative viability ([4]; first compound 8 µM): 0.344

Cell Line: NCI-H3122
- relative viability ([1]; first compound 0.08 µM): 0.977
- relative viability ([1]; first compound 0.253 µM): 0.995
- relative viability ([1]; first compound 0.8 µM): 0.959
- relative viability ([1]; first compound 2.53 µM): 0.986
- relative viability ([1]; first compound 8 µM): 0.925
- relative viability ([2]; first compound 0.08 µM): 0.201
- relative viability ([2]; first compound 0.253 µM): 0.199
- relative viability ([2]; first compound 0.8 µM): 0.228
- relative viability ([2]; first compound 2.53 µM): 0.184
- relative viability ([2]; first compound 8 µM): 0.19
- relative viability ([3]; first compound 0.253 µM): 0.35
- relative viability ([3]; first compound 0.8 µM): 0.493
- relative viability ([3]; first compound 2.53 µM): 0.439
- relative viability ([3]; first compound 8 µM): 0.441
- relative viability ([4]; first compound 0.08 µM): 0.47
- relative viability ([4]; first compound 0.253 µM): 0.387
- relative viability ([4]; first compound 0.8 µM): 0.429
- relative viability ([4]; first compound 2.53 µM): 0.302
- relative viability ([4]; first compound 8 µM): 0.389

Cell Line: PC-3 [JPC-3]
- relative viability ([1]; first compound 0.08 µM): 1.12
- relative viability ([1]; first compound 0.253 µM): 0.947
- relative viability ([1]; first compound 0.8 µM): 1.07
- relative viability ([1]; first compound 2.53 µM): 1.06
- relative viability ([1]; first compound 8 µM): 0.976
- relative viability ([2]; first compound 0.08 µM): 1.05
- relative viability ([2]; first compound 0.253 µM): 1.03
- relative viability ([2]; first compound 0.8 µM): 1.13
- relative viability ([2]; first compound 2.53 µM): 1.16
- relative viability ([2]; first compound 8 µM): 0.651
- relative viability ([3]; first compound 0.08 µM): 0.77
- relative viability ([3]; first compound 0.253 µM): 0.894
- relative viability ([3]; first compound 0.8 µM): 0.862
- relative viability ([3]; first compound 2.53 µM): 0.824
- relative viability ([3]; first compound 8 µM): 0.859
- relative viability ([4]; first compound 0.253 µM): 0.856
- relative viability ([4]; first compound 0.8 µM): 0.899
- relative viability ([4]; first compound 2.53 µM): 0.754
- relative viability ([4]; first compound 8 µM): 0.718

Cell Line: NCI-H1355
- relative viability ([1]; first compound 0.08 µM): 1.04
- relative viability ([1]; first compound 0.253 µM): 0.942
- relative viability ([1]; first compound 0.8 µM): 0.768
- relative viability ([1]; first compound 2.53 µM): 1.01
- relative viability ([1]; first compound 8 µM): 0.729
- relative viability ([2]; first compound 0.08 µM): 0.985
- relative viability ([2]; first compound 0.253 µM): 1.06
- relative viability ([2]; first compound 0.8 µM): 0.959
- relative viability ([2]; first compound 2.53 µM): 1.02
- relative viability ([2]; first compound 8 µM): 1.01
- relative viability ([3]; first compound 0.08 µM): 0.575
- relative viability ([3]; first compound 0.253 µM): 0.564
- relative viability ([3]; first compound 0.8 µM): 0.571
- relative viability ([3]; first compound 2.53 µM): 0.594
- relative viability ([3]; first compound 8 µM): 0.574
- relative viability ([4]; first compound 0.08 µM): 0.353
- relative viability ([4]; first compound 0.253 µM): 0.376
- relative viability ([4]; first compound 0.8 µM): 0.398
- relative viability ([4]; first compound 2.53 µM): 0.326
- relative viability ([4]; first compound 8 µM): 0.358

Cell Line: NCI-H838
- relative viability ([1]; first compound 0.08 µM): 1.21
- relative viability ([1]; first compound 0.253 µM): 0.946
- relative viability ([1]; first compound 0.8 µM): 0.892
- relative viability ([1]; first compound 2.53 µM): 1.13
- relative viability ([1]; first compound 8 µM): 0.877
- relative viability ([2]; first compound 0.08 µM): 0.226
- relative viability ([2]; first compound 0.253 µM): 0.247
- relative viability ([2]; first compound 0.8 µM): 0.241
- relative viability ([2]; first compound 2.53 µM): 0.23
- relative viability ([2]; first compound 8 µM): 0.262
- relative viability ([3]; first compound 0.08 µM): 0.299
- relative viability ([3]; first compound 0.253 µM): 0.23
- relative viability ([3]; first compound 0.8 µM): 0.256
- relative viability ([3]; first compound 2.53 µM): 0.223
- relative viability ([3]; first compound 8 µM): 0.225
- relative viability ([4]; first compound 0.08 µM): 0.466
- relative viability ([4]; first compound 0.253 µM): 0.437
- relative viability ([4]; first compound 0.8 µM): 0.489
- relative viability ([4]; first compound 2.53 µM): 0.351
- relative viability ([4]; first compound 8 µM): 0.28
